{"source": "patent US20050148495A1", "about": "“Methods and materials including for treating acne” (priority 2003, published 2005)", "key": {"Enterococcus hirae": {"test_system": "Enterococcus hirae", "conditions": "Enterococcus hirae 9790"}, "[1]": {"test_system": "Enterococcus faccium (VRE)", "conditions": "Enterococcus faccium 700221 (VRE)"}, "[2]": {"test_system": "P. acnes strain (ATCC 6919)", "conditions": "ATCC 6919"}, "Hanford minipigs": {"test_system": "Hanford minipigs", "experiment": "Minipig subchronic dermal toxicity test with toxicokinetics", "format": "in vivo", "conditions": "one 70 μg/kg/day female", "protocol": "XMP.629 was evaluated for potential toxicity when administered by a single daily dermal application to Hanford minipigs over the course of one month. The study group design and dosage levels tested were as follows:\nThe test article or placebo control was administered once daily to the dorsal surface of each animal for 29 consecutive days. General health, mortality and moribundity checks were conducted twice daily. General health examinations were performed by a veterinarian once prior to in-life initiation and weekly during the study. The animals were examined daily for overt toxic signs (post-dose observations) between one and two hours following dosing. Detailed clinical observations and individual body weights were performed weekly, beginning on study day 0, and on the day of scheduled euthanasia. Dermal scoring was performed once per week and on the day of scheduled euthanasia.\nHematology, coagulation and clinical chemistry parameters were evaluated once prior to in-life initiation (day -9) and near the conclusion of the dosing phase (day 26). Blood samples were also collected for anti-test article analyses on study day 26 and toxicokinetic (TK) analyses on study days 0 and 27. Ophthalmological examinations were performed once prior to in-life initiation and just prior to the end of the dosing phase. […]"}, "Enterococcus": {"test_system": "Enterococcus", "format": "cell-based", "quoted_text": "(§2) Control tubes containing only water or formulation buffer were prepared for each isolate. Initial growth controls were determined by removing 10 μL from the water control tube and diluting it by 100 fold. From this dilution, 10 μL was used for inoculation and for spreading over the surface onto Laked Blood Agar (LBA) (Anaerobe Systems, Morgan Hill, Calif.) plates. The tubes and plates were incubated in an anaerobic atmosphere at 37° C. for 48 h. […] MBC50 and 90 values represent where 50 and 90%, respectively, of the tested strain's MBC values are equal to or less than the indicated concentration."}, "S. aureus": {"test_system": "S. aureus", "experiment": "Comparison of XMP.629 with standard topical agents (MIC90/MBC)", "format": "cell-based, Staphylococcus aureus", "quoted_text": "as §2"}, "Porphyromonas gingivalis": {"test_system": "Porphyromonas gingivalis", "experiment": "microbe, parasite or virus in culture", "format": "cell-based", "conditions": "Porphyromonas gingivalis 33277", "protocol": "(§1) Acne vulgaris may involve a microbial consortium. Although P. acnes may be a prominent member of such a consortium, other uncharacterized bacteria may also participate. The microbial activity of XMP.629 as an acetate gel as described in Example 5 and other commonly used antibiotics was evaluated against a panel of human pathogens using standardized NCCLS protocols. […] Lesser potency was observed against the gram-negative organisms B. fragilis, B. cepacia, P. mirabilis and S. marcescens, which are often refractory to many antimicrobial compounds."}, "Salmonella ryphimurium": {"test_system": "Salmonella ryphimurium", "experiment": "microbe, parasite or virus in culture", "format": "cell-based", "conditions": "Salmonella ryphimurium SL770", "protocol": "as §1"}, "Klebsiella pneumoniae": {"test_system": "Klebsiella pneumoniae", "experiment": "microbe, parasite or virus in culture", "format": "cell-based", "protocol": "as §1"}, "Burkholderia cepacia": {"test_system": "Burkholderia cepacia", "experiment": "microbe, parasite or virus in culture", "format": "cell-based", "conditions": "Burkholderia cepacia 25416", "protocol": "as §1"}, "Escherichia coli": {"test_system": "Escherichia coli", "experiment": "microbe, parasite or virus in culture", "format": "cell-based", "protocol": "as §1"}, "Prevotella intermedia": {"test_system": "Prevotella intermedia", "experiment": "microbe, parasite or virus in culture", "format": "cell-based", "conditions": "Prevotella intermedia 25261", "protocol": "as §1"}, "[3]": {"test_system": "Actinobacillus actinomycetemcomitans", "experiment": "microbe, parasite or virus in culture", "format": "cell-based", "conditions": "Actinobacillus actinomycetemcomitans 43718", "protocol": "as §1"}, "Proteus mirabilis": {"test_system": "Proteus mirabilis", "experiment": "microbe, parasite or virus in culture", "format": "cell-based", "conditions": "Proteus mirabilis 29852", "protocol": "as §1"}, "Serratia marcescens": {"test_system": "Serratia marcescens", "experiment": "microbe, parasite or virus in culture", "format": "cell-based", "protocol": "as §1"}, "Bacteroides fragilis": {"test_system": "Bacteroides fragilis", "experiment": "microbe, parasite or virus in culture", "format": "cell-based", "conditions": "Bacteroides fragilis 25285", "protocol": "as §1"}}, "note": "Like-named read-outs stand apart in the source and are kept apart here. Non-standard residues stand in square brackets, D forms with d. Residues, ends and D or L forms follow the SMILES beside them. d1Nal = N[C@H](Cc1cccc2ccccc12)C(=O)O"}
{"molecule": "CC(C)C[C@@H](NC(=O)[C@H](N)CCCCN)C(=O)N[C@H](Cc1ccccc1)C(=O)N[C@H](CCCNC(=N)N)C(=O)N[C@H](Cc1cccc2ccccc12)C(=O)N[C@H](CCC(N)=O)C(=O)N[C@H](C)C(=O)N[C@H](CCCCN)C(=O)N[C@H](Cc1cccc2ccccc12)C(N)=O", "note": "[XMP.629, NH2-lys-leu-phe-arg-(3-(1-naphthyl)-ala)-gln-ala-lys-(3-(1-naphthyl)-ala)-CONH2] (H-[dK][dL][dF][dR][d1Nal][dQ][dA][dK][d1Nal]-NH2)", "values": [{"measurement": "Minimum Inhibitory Concentrations", "setting": "Enterococcus hirae", "result": 2.00, "unit": "µg/mL"}, {"measurement": "Minimum Inhibitory Concentrations", "setting": "[1]", "result": 2.00, "unit": "µg/mL"}, {"measurement": "MIC/MBC", "setting": "[2]", "result": ">4", "unit": "µg/mL"}, {"measurement": "Dermal observations", "setting": "Hanford minipigs", "result": "single incidence of grade 2 (well defined) erythema"}, {"measurement": "MIC90, XMP.629 data reported as MBC values", "setting": "Enterococcus", "result": 4, "unit": "µg/mL"}, {"measurement": "MIC90, XMP.629 data reported as MBC values", "setting": "Enterococcus; in FB (formulation buffer)", "result": 0.5, "unit": "µg/mL"}, {"measurement": "MIC90, XMP.629 data reported as MBC values", "setting": "S. aureus", "result": 8, "unit": "µg/mL"}, {"measurement": "MIC90, XMP.629 data reported as MBC values", "setting": "S. aureus; in FB (formulation buffer)", "result": 0.06, "unit": "µg/mL"}, {"measurement": "Minimum Inhibitory Concentrations", "setting": "Porphyromonas gingivalis", "result": 4.00, "unit": "µg/mL"}, {"measurement": "Minimum Inhibitory Concentrations", "setting": "Salmonella ryphimurium", "result": 4.00, "unit": "µg/mL"}, {"measurement": "Minimum Inhibitory Concentrations", "setting": "Klebsiella pneumoniae; Klebsiella pneumoniae 19645", "result": 2.00, "unit": "µg/mL"}, {"measurement": "Minimum Inhibitory Concentrations", "setting": "Klebsiella pneumoniae; Klebsiella pneumoniae 29011", "result": 8.00, "unit": "µg/mL"}, {"measurement": "Minimum Inhibitory Concentrations", "setting": "Burkholderia cepacia", "result": 32.0, "unit": "µg/mL"}, {"measurement": "Minimum Inhibitory Concentrations", "setting": "Escherichia coli; Escherichia coli 07:K1", "result": 4.00, "unit": "µg/mL"}, {"measurement": "Minimum Inhibitory Concentrations", "setting": "Escherichia coli; Escherichia coli 0111:B4", "result": 2.00, "unit": "µg/mL"}, {"measurement": "Minimum Inhibitory Concentrations", "setting": "Prevotella intermedia", "result": 2.00, "unit": "µg/mL"}, {"measurement": "Minimum Inhibitory Concentrations", "setting": "[3]", "result": 4.00, "unit": "µg/mL"}, {"measurement": "Minimum Inhibitory Concentrations", "setting": "Proteus mirabilis", "result": ">64", "unit": "µg/mL"}, {"measurement": "Minimum Inhibitory Concentrations", "setting": "Serratia marcescens; Serratia marcescens 13880", "result": 64.0, "unit": "µg/mL"}, {"measurement": "Minimum Inhibitory Concentrations", "setting": "Serratia marcescens; Serratia marcescens 14756", "result": 32.0, "unit": "µg/mL"}, {"measurement": "Minimum Inhibitory Concentrations", "setting": "Bacteroides fragilis", "result": 16.0, "unit": "µg/mL"}]}
